Results as given in patent EP3057950B1, “PHENYL LINKED QUINOLINYL MODULATORS OF ROR-GAMMA-T” (Janssen Pharmaceutica NV, priority 2013, dated 2015).
Structures can show the parent of a compound that is named as a salt.

Key:
[1] = molecular target: T1, wild type human RORγt ligand binding domain (RORγt LBD) (Homo sapiens, UniProt P51449); experiment: RORγt ThermoFluor® Assay (thermal shift, binding affinity); conditions: pH 7.0, estimated from concentration response curves
T1 construct: His-tag (N); TurboTEV protease cleavage site (ENLYFQG) (N); made in house; host or cells: E. coli (pHIS1, modified pET expression vector)
T1 sequence (P51449 269-508 limits assumed): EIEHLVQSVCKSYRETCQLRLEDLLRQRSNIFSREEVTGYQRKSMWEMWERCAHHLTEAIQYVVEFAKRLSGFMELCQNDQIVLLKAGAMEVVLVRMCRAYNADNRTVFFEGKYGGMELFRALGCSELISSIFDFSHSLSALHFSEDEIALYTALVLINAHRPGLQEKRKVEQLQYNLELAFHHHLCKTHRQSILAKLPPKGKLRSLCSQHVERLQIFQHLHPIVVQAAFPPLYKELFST
Experimental: This approach is applicable to a wide variety of systems, and rigorous in theoretical interpretation through quantitation of equilibrium binding constants (KD).
The shift in the melting point described as a ΔTm is proportional to the concentration and affinity of the ligand.
Protein and compound solutions are dispensed into black 384-well polypropylene PCR microplates (Abgene) and overlayed with silicone oil (1 µL, Fluka, type DC 200) to prevent evaporation.
Bar-coded assay plates are robotically loaded onto a thermostatically controlled PCR-type thermal block and then heated at a typical ramp-rate of 1 °C/min for all experiments. Fluorescence was measured by continuous illumination with UV light (Hamamatsu LC6) supplied via fiber optic and filtered through a band-pass filter (380-400 nm; >6 OD cutoff). Fluorescence emission of the entire 384-well plate was detected by measuring light intensity using a CCD camera (Sensys, Roper Scientific) filtered to detect 500 ± 25 nm, resulting in simultaneous and independent readings of all 384 wells. Images were collected at each temperature, and the sum of the pixel intensity in a given area of the assay plate was recorded versus temperature. Reference wells contained RORγt without compounds, and the assay conditions were as follows: • 0.065 mg/mL RORγt • 60 µM 1,8-ANS • 100 mM Hepes, pH 7.0 • 10 mM NaCl • 2.5 mM GSH • 0.002% Tween-20
Project compounds were arranged in a pre-dosed mother plate (Greiner Bio-one) wherein compounds are serially diluted in 100% DMSO by 1:2 from a high concentration of 10 mM over 12 columns within a series (column 12 is a reference well containing DMSO, no compound). The compounds were robotically dispensed directly into assay plates (1x = 46 nL) using a Hummingbird capillary liquid handling instrument (Digilab). Following compound dispense, protein and dye in buffer was added to achieve the final assay volume of 3 µL, followed by 1 µL of silicone oil.

[2] = molecular target: T2, wild type human RORγt LBD (Homo sapiens, UniProt P51449); experiment: RORγt Reporter Assay (GAL4-RORγt LBD luciferase in HEK293T cells); assay type: cell-based; conditions: HEK293T cells; for IC50: compounds for 24 hours, read-out: RORγt reporter Assay, IC50; for inhibition at 6 µM: HEK-293T, read-out: RORγt reporter Assay, % inhibition @ 6 µM, @ 6 µM
T2 construct: expressed in transfected cells; host or cells: HEK293T
T2 sequence (P51449 269-508 limits assumed): T1 sequence (P51449 269-508 limits assumed)
From the text: A reporter assay was used to test functional activity of RORγt modulatory compounds on transcriptional activation driven by the RORγt LBD. Cells used in the assay were co-transfected with two constructs. The first construct, pBIND-RORγt LBD, contained the wild type human RORγt LBD fused to the DNA binding domain of the GAL4 protein. The second construct, pGL4.31 (Promega Cat no. C935A), contained multiple GAL4 responsive DNA elements upstream of firefly luciferase. […] The mutant construct was called pBIND-RORγt-AF2.
The pBIND vector contains the GAL4 DNA Binding Domain (GAL4 DBD) and the renilla luciferase gene under control of the SV40 promoter. Renilla luciferase expression serves as a control for transfection efficiency and cell viability.
The reporter assay was performed by transiently transfecting HEK293T cells with 5 µg of pBIND-RORγt LBD or pBIND-RORγt LBD-AF2 and 5 µg pGL4.31 (Promega Cat no. C935A) using Fugene 6 (Invitrogen Cat no. E2691) at a 1:6 ratio of DNA: Fugene 6 in a T-75 flask in which cells were at least 80% confluent. Twenty four hours after bulk transfection, cells were plated into 96-well plates at 50,000 cells/well in phenol-red free DMEM containing 5% Lipid Reduced FCS and Pen/Strep. Six hours after plating, cells were treated with compounds for 24 hours. Media was removed and cells were lysed with 50 µL 1x Glo Lysis Buffer (Promega). Dual Glo Luciferase Reagent (50 µL/well) was then added and firefly luciferase luminescence was read on an Envision after a ten minute incubation. Finally, Stop and Glo reagent (50 µL/well) was added and renilla luciferase luminescence was read on an Envision instrument after a ten minute incubation. To calculate the effect of compounds on RORγt activity, the ratio of firefly to renilla luciferase was determined and plotted against compound concentration. Agonist compounds increase RORγt-driven luciferase expression, and antagonist or inverse agonist compounds decrease luciferase expression.

| Structure (SMILES) | Kd [1] [nM] | RORγt reporter Assay, % inhibition @ 6 µM [2] [%] | IC50 [2] [nM] | inhibition at 6 µM [2] [%] |
| --- | --- | --- | --- | --- |
| COCCN(C)c1nc2ccc(C(O)(c3ccc(C(F)(F)F)nc3)c3cncn3C)cc2c(Cl)c1-c1ccccc1 (centres unmarked) [Example 53, {4-Chloro-2-[(2-methoxyethyl)(methyl)amino]-3-phenylquinolin-6-yl}(1-methyl-1H-imidazol-5-yl)[6-(trifluoromethyl)pyridin-3-yl]methanol] | 7.2 | – | – | – |
| Cn1cncc1C(O)(c1ccc2nc(C#N)c(-c3ccccc3)c(C#N)c2c1)c1ccccn1 (single isomer, unassigned) [Example 18b, 6-(Hydroxy(1-methyl-1H-imidazol-5-yl)(pyridin-2-yl)methyl)-3-phenylquinoline-2,4-dicarbonitrile] | 14000 | 40 | > 6000 | – |
| OC(c1cccc(Cl)c1)(c1ccnc(C(F)(F)F)c1)c1ccc2nc(Cl)c(-c3ccccc3)c(Cl)c2c1 (centres unmarked) [Example 77, (3-Chlorophenyl)(2,4-dichloro-3-phenylquinolin-6-yl)(2-(trifluoromethyl)pyridin-4-yl)methanol] | 12000 | – | > 6000 | 48 |
| Cn1cncc1C(O)(c1ccc(Cl)cc1)c1ccc2nc(OCC(F)(F)F)c(-c3ccccc3)c(Cl)c2c1 (centres unmarked) [Example 45, (4-Chlorophenyl)[4-chloro-3-phenyl-2-(2,2,2-trifluoroethoxy)quinolin-6-yl](1-methyl-1H-imidazol-5-yl)methanol•TFA] | 770 | – | 570 | 93 |
| Cc1nc(C)c(C(O)(c2ccc(Cl)cc2)c2ccc3nc(Cl)c(-c4ccccc4)c(Cl)c3c2)s1 (centres unmarked) [Example 87, (4-Chlorophenyl)(2,4-dichloro-3-phenylquinolin-6-yl)(2,4-dimethylthiazol-5-yl)methanol] | 12000 | – | > 6000 | 56 |
| N#Cc1nc2ccc(C(O)(c3cccc(Cl)c3)c3ccnc(C(F)(F)F)c3)cc2c(C#N)c1-c1ccccc1 (centres unmarked) [Example 76, 6-((3-Chlorophenyl)(hydroxy)(2-(trifluoromethyl)pyridin4-yl)methyl)-3-phenylquinoline-2,4-dicarbonitrile] | 18000 | – | ~2000 | 80 |
| CSc1nc2ccc(C(O)(c3sc(C)nc3C)c3cncn3C)cc2c(Cl)c1-c1ccccc1 (centres unmarked) [Example 43, (4-Chloro-2-(methylthio)-3-phenylquinolin-6-yl)(2,4-dimethylthiazol-5-yl)(1-methyl-1H-imidazol-5-yl)methanol•TFA] | 3.5 | – | 39 | 98 |
| CCC(=O)NCCOc1nc2ccc(C(O)(c3ccc(Cl)cc3)c3cncn3C)cc2c(Cl)c1-c1ccccc1 (centres unmarked) [Example 51, N-[2-({4-Chloro-6-[(4-chlorophenyl)(hydroxy)(1-methyl-1H-imidazol-5-yl)methyl]-3-phenylquinolin-2-yl}oxy)ethyl]propanamide] | 1100 | – | 1100 | 96 |
| COc1c(-c2ccccc2)c(Cl)nc2ccc(C(O)(c3sc(C)nc3C)c3cncn3C)cc12 (centres unmarked) [Example 38, (2-Chloro-4-methoxy-3-phenylquinolin-6-yl)(2,4-dimethylthiazol-5-yl)(1-methyl-1H-imidazol-5-yl)methanol•TFA] | 0.26 | – | 30 | 93 |
| Cc1nc(C)c(C(O)(c2ccc3nc(C#N)c(-c4ccccc4)c(C#N)c3c2)c2cnnn2C)s1 (single isomer, unassigned) [Example 47b, 6-((2,4-Dimethylthiazol-5-yl)(hydroxy)(1-methyl-1H-1,2,3-triazol-5-yl)methyl)-3-phenylquinoline-2,4-dicarbonitrile] | 930 | – | ~2000 | 80 |
| CN(CCO)c1nc2ccc(C(O)(c3ccc(Cl)cc3)c3cncn3C)cc2c(Cl)c1-c1ccccc1 (centres unmarked) [Example 46, 2-[{4-Chloro-6-[(4-chlorophenyl)(hydroxy)(1-methyl-1H-imidazol-5-yl)methyl]-3-phenylquinolin-2-yl}(methyl)amino]ethanol•TFA] | 230 | – | 830 | 106 |
| Cn1cncc1C(O)(c1ccc2nc(C#N)c(-c3ccccc3)c(C#N)c2c1)c1ccccn1 (single isomer, unassigned) [Example 18c, 6-(Hydroxy(1-methyl-1H-imidazol-5-yl)(pyridin-2-yl)methyl)-3-phenylquinoline-2,4-dicarbonitrile] | 330 | 95 | 850 | – |
| Cn1cncc1C(O)(c1ccc(Cl)cc1)c1ccc2nc(Cl)c(-c3ccccn3)c(Cl)c2c1 (centres unmarked) [Example 5, (4-Chlorophenyl)(2,4-dichloro-3-(pyridin-2-yl)quinolin-6-yl)(1-methyl-1H-imidazol-5-yl)methanol•TFA] | 620 | – | 1700 | 87 |
| CN(C)c1nc2ccc(C(O)(c3ccncc3)c3ccccn3)cc2c(Cl)c1-c1ccccc1 (centres unmarked) [Example 84, (4-Chloro-2-(dimethylamino)-3-phenylquinolin-6-yl)(pyridin-2-yl)(pyridin4-yl)methanol•TFA] | 17000 | – | 3500 | 93 |
| OC(c1ccccc1)(c1ccc2nc(Cl)c(-c3ccccc3Cl)c(Cl)c2c1)c1ncco1 (centres unmarked) [Example 74, (2,4-Dichloro-3-(2-chlorophenyl)quinolin-6-yl)(oxazol-2-yl)(phenyl)methanol] | 11000 | – | > 6000 | 60 |
| COc1nc2ccc(C(O)(c3sc(C)nc3C)c3cncn3C)cc2c(Cl)c1-c1ccccc1 (centres unmarked) [Example 37, (4-Chloro-2-methoxy-3-phenylquinolin-6-yl)(2,4-dimethylthiazol-5-yl)(1-methyl-1H-imidazol-5-yl)methanol•TFA] | 7.2 | – | 260 | 90 |
| CON(C)c1nc2ccc(C(O)(c3ccc(Cl)cc3)c3cncn3C)cc2c(N(C)OC)c1-c1ccccc1 (centres unmarked) [Example 59, {2,4-Bis[methoxy(methyl)amino]-3-phenylquinolin-6-yl}(4-chlorophenyl)(1-methyl-1H-imidazol-5-yl)methanol] | – | – | – | 98 |
| CC(C)Oc1nc2ccc(C(O)(c3cccnc3)c3cccc(Cl)c3)cc2cc1-c1ccccc1 (centres unmarked) [Example 79, (3-Chlorophenyl)(2-isopropoxy-3-phenylquinolin-6-yl)(pyridin-3-yl)methanol•TFA] | 17000 | – | – | – |
| CCOc1nc2ccc(C(O)(c3cccnc3)c3cccc(Cl)c3)cc2c(OCC)c1-c1ccccc1 (centres unmarked) [Example 81, (3-Chlorophenyl)(2,4-diethoxy-3-phenylquinolin-6-yl)(pyridin-3-yl)methanol•TFA] | 14000 | – | – | – |
| COc1c(-c2ccccc2)c(Cl)nc2ccc(C(O)(c3cnnn3C)c3cnc(C)n3C)cc12 (single isomer, unassigned) [Example 40b, (2-Chloro-4-metboxy-3-phenylquinolin-6-yl)(1,2-dimethyl-1H-imidazol-5-yl)(1-methyl-1H-1,2,3-triazol-5-yl)methanol] | – | – | – | 97 |
